Laboratory results: the NIST ThermoML archive (doi:10.1016/j.jct.2007.08.004)
“And” between values parts separate entries of the source, which are not always exact repeats. Identical values can stand only once. Numbers after ± are expanded uncertainties.

Experiments:
[1] = for vapor or sublimation pressure: Calculated from knudsen effusion weight loss; for Triple point temperature: DTA
[2] = molar heat capacity at constant pressure; conditions: 101.33 kPa, Small sample (50 mg) DSC
[3] = Molar enthalpy of transition or fusion; conditions: DSC

Structure (SMILES): O=C1NCCN1 [2-imidazolidinone]
- vapor or sublimation pressure ([1]; 327.2 K, Crystal 2): 0.0001064 ± 2e-05 kPa and 0.0001074 ± 2e-05 kPa and 0.0001035 ± 2e-05 kPa
- vapor or sublimation pressure ([1]; 329.21 K, Crystal 2): 0.0001364 ± 2.1e-05 kPa and 0.0001328 ± 2.1e-05 kPa and 0.0001305 ± 2.1e-05 kPa
- vapor or sublimation pressure ([1]; 331.14 K, Crystal 2): 0.0001664 ± 2.1e-05 kPa and 0.0001631 ± 2.1e-05 kPa and 0.0001658 ± 2.1e-05 kPa
- vapor or sublimation pressure ([1]; 333.19 K, Crystal 2): 0.0002142 ± 2.1e-05 kPa and 0.0002049 ± 2.1e-05 kPa and 0.0002095 ± 2.1e-05 kPa
- vapor or sublimation pressure ([1]; 335.21 K, Crystal 2): 0.0002681 ± 2.2e-05 kPa and 0.0002592 ± 2.2e-05 kPa and 0.0002535 ± 2.2e-05 kPa
- vapor or sublimation pressure ([1]; 337.15 K, Crystal 2): 0.0003214 ± 2.3e-05 kPa and 0.000301 ± 2.3e-05 kPa and 0.00032 ± 2.3e-05 kPa
- vapor or sublimation pressure ([1]; 339.2 K, Crystal 2): 0.0003984 ± 2.4e-05 kPa and 0.0003883 ± 2.4e-05 kPa
- vapor or sublimation pressure ([1]; 341.21 K, Crystal 2): 0.000457 ± 2.6e-05 kPa and 0.0004831 ± 2.6e-05 kPa and 0.0004721 ± 2.6e-05 kPa
- vapor or sublimation pressure ([1]; 343.14 K, Crystal 2): 0.0005644 ± 2.8e-05 kPa and 0.0005525 ± 2.8e-05 kPa and 0.0005387 ± 2.8e-05 kPa
- vapor or sublimation pressure ([1]; 345.19 K, Crystal 2): 0.0006621 ± 3.1e-05 kPa and 0.0006672 ± 3.1e-05 kPa and 0.0006399 ± 3e-05 kPa
- vapor or sublimation pressure ([1]; 347.2 K, Crystal 1): 0.0007833 ± 3.4e-05 kPa and 0.0008114 ± 3.5e-05 kPa and 0.0007693 ± 3.4e-05 kPa
- vapor or sublimation pressure ([1]; 349.16 K, Crystal 1): 0.0009806 ± 4e-05 kPa and 0.0009769 ± 4e-05 kPa and 0.0009472 ± 3.9e-05 kPa
- Triple point temperature ([1]; Crystal 1): 404.8 ± 0.5 K
- Triple point temperature ([1]; Crystal 2): 346.6 ± 0.7 K
- molar heat capacity at constant pressure ([2]; 268.15 K, Crystal 2): 99.4 ± 2 J/K/mol
- molar heat capacity at constant pressure ([2]; 270.15 K, Crystal 2): 100 ± 2 J/K/mol
- molar heat capacity at constant pressure ([2]; 275.15 K, Crystal 2): 101.5 ± 2 J/K/mol
- molar heat capacity at constant pressure ([2]; 280.15 K, Crystal 2): 102.7 ± 2.1 J/K/mol
- molar heat capacity at constant pressure ([2]; 285.15 K, Crystal 2): 103.9 ± 2.1 J/K/mol
- molar heat capacity at constant pressure ([2]; 290.15 K, Crystal 2): 105.1 ± 2.1 J/K/mol
- molar heat capacity at constant pressure ([2]; 295.15 K, Crystal 2): 106.3 ± 2.1 J/K/mol
- molar heat capacity at constant pressure ([2]; 298.15 K, Crystal 2): 107.7 ± 2.2 J/K/mol
- molar heat capacity at constant pressure ([2]; 300.15 K, Crystal 2): 108.5 ± 2.2 J/K/mol
- molar heat capacity at constant pressure ([2]; 305.15 K, Crystal 2): 110.2 ± 2.2 J/K/mol
- molar heat capacity at constant pressure ([2]; 310.15 K, Crystal 2): 111.9 ± 2.2 J/K/mol
- molar heat capacity at constant pressure ([2]; 315.15 K, Crystal 2): 113.2 ± 2.3 J/K/mol
- molar heat capacity at constant pressure ([2]; 320.15 K, Crystal 2): 115.4 ± 2.3 J/K/mol
- molar heat capacity at constant pressure ([2]; 325.15 K, Crystal 2): 117.3 ± 2.3 J/K/mol
- molar heat capacity at constant pressure ([2]; 330.15 K, Crystal 2): 119 ± 2.4 J/K/mol
- molar heat capacity at constant pressure ([2]; 335.15 K, Crystal 2): 120.9 ± 2.4 J/K/mol
- molar heat capacity at constant pressure ([2]; 338.15 K, Crystal 2): 122.1 ± 2.4 J/K/mol
- Molar enthalpy of transition or fusion ([3]; Crystal 1): 3.15 ± 0.0956 kcal/mol
- Molar enthalpy of transition or fusion ([3]; Crystal 2): 0.908 ± 0.0717 kcal/mol

Structure (SMILES): O=C1NCCCN1 [tetrahydropyrimidin-2(1H)-one]
- vapor or sublimation pressure ([1]; 363.19 K, Crystal): 0.0001292 ± 2.1e-05 kPa and 0.0001261 ± 2.1e-05 kPa and 0.0001216 ± 2.1e-05 kPa
- vapor or sublimation pressure ([1]; 365.18 K, Crystal): 0.0001581 ± 2.1e-05 kPa and 0.0001562 ± 2.1e-05 kPa and 0.0001488 ± 2.1e-05 kPa
- vapor or sublimation pressure ([1]; 367.14 K, Crystal): 0.0001903 ± 2.1e-05 kPa and 0.0001913 ± 2.1e-05 kPa and 0.0001858 ± 2.1e-05 kPa
- vapor or sublimation pressure ([1]; 369.19 K, Crystal): 0.0002232 ± 2.2e-05 kPa and 0.0002283 ± 2.2e-05 kPa
- vapor or sublimation pressure ([1]; 371.17 K, Crystal): 0.000271 ± 2.2e-05 kPa and 0.0002737 ± 2.2e-05 kPa and 0.0002643 ± 2.2e-05 kPa
- vapor or sublimation pressure ([1]; 373.15 K, Crystal): 0.0003343 ± 2.3e-05 kPa and 0.0003328 ± 2.3e-05 kPa
- vapor or sublimation pressure ([1]; 375.18 K, Crystal): 0.0003988 ± 2.4e-05 kPa and 0.000402 ± 2.5e-05 kPa
- vapor or sublimation pressure ([1]; 377.18 K, Crystal): 0.0004813 ± 2.6e-05 kPa and 0.0004804 ± 2.6e-05 kPa and 0.0004655 ± 2.6e-05 kPa
- vapor or sublimation pressure ([1]; 379.16 K, Crystal): 0.0005717 ± 2.9e-05 kPa and 0.0005887 ± 2.9e-05 kPa and 0.0005753 ± 2.9e-05 kPa
- vapor or sublimation pressure ([1]; 381.18 K, Crystal): 0.000719 ± 3.2e-05 kPa and 0.000702 ± 3.2e-05 kPa and 0.000673 ± 3.1e-05 kPa
- vapor or sublimation pressure ([1]; 383.18 K, Crystal): 0.0008587 ± 3.6e-05 kPa and 0.0008463 ± 3.6e-05 kPa
- vapor or sublimation pressure ([1]; 385.16 K, Crystal): 0.001027 ± 8e-05 kPa and 0.0009846 ± 4e-05 kPa
- molar heat capacity at constant pressure ([2]; 268.15 K, Crystal): 117.2 ± 2.3 J/K/mol
- molar heat capacity at constant pressure ([2]; 270.15 K, Crystal): 118 ± 2.4 J/K/mol
- molar heat capacity at constant pressure ([2]; 275.15 K, Crystal): 120.1 ± 2.4 J/K/mol
- molar heat capacity at constant pressure ([2]; 280.15 K, Crystal): 122.2 ± 2.4 J/K/mol
- molar heat capacity at constant pressure ([2]; 285.15 K, Crystal): 124.1 ± 2.5 J/K/mol
- molar heat capacity at constant pressure ([2]; 290.15 K, Crystal): 126.2 ± 2.5 J/K/mol
- molar heat capacity at constant pressure ([2]; 295.15 K, Crystal): 128.1 ± 2.6 J/K/mol
- molar heat capacity at constant pressure ([2]; 298.15 K, Crystal): 129.5 ± 2.6 J/K/mol
- molar heat capacity at constant pressure ([2]; 300.15 K, Crystal): 130.4 ± 2.6 J/K/mol
- molar heat capacity at constant pressure ([2]; 305.15 K, Crystal): 132.7 ± 2.7 J/K/mol
- molar heat capacity at constant pressure ([2]; 310.15 K, Crystal): 135.3 ± 2.7 J/K/mol
- molar heat capacity at constant pressure ([2]; 315.15 K, Crystal): 137.8 ± 2.8 J/K/mol
- molar heat capacity at constant pressure ([2]; 320.15 K, Crystal): 140.2 ± 2.8 J/K/mol
- molar heat capacity at constant pressure ([2]; 325.15 K, Crystal): 142.6 ± 2.9 J/K/mol
- molar heat capacity at constant pressure ([2]; 330.15 K, Crystal): 145.1 ± 2.9 J/K/mol
- molar heat capacity at constant pressure ([2]; 335.15 K, Crystal): 147.3 ± 2.9 J/K/mol
- molar heat capacity at constant pressure ([2]; 340.15 K, Crystal): 150.1 ± 3 J/K/mol
- molar heat capacity at constant pressure ([2]; 345.15 K, Crystal): 152.2 ± 3 J/K/mol
- molar heat capacity at constant pressure ([2]; 350.15 K, Crystal): 155.1 ± 3.1 J/K/mol
- molar heat capacity at constant pressure ([2]; 355.15 K, Crystal): 157.2 ± 3.1 J/K/mol
- molar heat capacity at constant pressure ([2]; 360.15 K, Crystal): 159.9 ± 3.2 J/K/mol
- molar heat capacity at constant pressure ([2]; 365.15 K, Crystal): 163.8 ± 3.3 J/K/mol
- molar heat capacity at constant pressure ([2]; 370.15 K, Crystal): 166.5 ± 3.3 J/K/mol
- molar heat capacity at constant pressure ([2]; 375.15 K, Crystal): 169.8 ± 3.4 J/K/mol
- molar heat capacity at constant pressure ([2]; 380.15 K, Crystal): 172.4 ± 3.4 J/K/mol
- molar heat capacity at constant pressure ([2]; 385.15 K, Crystal): 175.1 ± 3.5 J/K/mol
- molar heat capacity at constant pressure ([2]; 390.15 K, Crystal): 177.3 ± 3.5 J/K/mol
- molar heat capacity at constant pressure ([2]; 395.15 K, Crystal): 180.4 ± 3.6 J/K/mol
- molar heat capacity at constant pressure ([2]; 400.15 K, Crystal): 183.3 ± 3.7 J/K/mol
- molar heat capacity at constant pressure ([2]; 405.15 K, Crystal): 186.5 ± 3.7 J/K/mol
- molar heat capacity at constant pressure ([2]; 410.15 K, Crystal): 189.8 ± 3.8 J/K/mol
- molar heat capacity at constant pressure ([2]; 415.15 K, Crystal): 193.9 ± 3.9 J/K/mol
- molar heat capacity at constant pressure ([2]; 420.15 K, Crystal): 197.1 ± 3.9 J/K/mol
- molar heat capacity at constant pressure ([2]; 425.15 K, Crystal): 200.8 ± 4 J/K/mol
- molar heat capacity at constant pressure ([2]; 430.15 K, Crystal): 202.7 ± 4.1 J/K/mol
- molar heat capacity at constant pressure ([2]; 435.15 K, Crystal): 204.9 ± 4.1 J/K/mol
- molar heat capacity at constant pressure ([2]; 440.15 K, Crystal): 207.5 ± 4.2 J/K/mol
- molar heat capacity at constant pressure ([2]; 445.15 K, Crystal): 210.3 ± 4.2 J/K/mol
- molar heat capacity at constant pressure ([2]; 450.15 K, Crystal): 213.3 ± 4.3 J/K/mol
- molar heat capacity at constant pressure ([2]; 455.15 K, Crystal): 215.9 ± 4.3 J/K/mol
- molar heat capacity at constant pressure ([2]; 460.15 K, Crystal): 219.1 ± 4.4 J/K/mol
- molar heat capacity at constant pressure ([2]; 465.15 K, Crystal): 222.2 ± 4.4 J/K/mol
- molar heat capacity at constant pressure ([2]; 470.15 K, Crystal): 224.9 ± 4.5 J/K/mol
